From patent US7531545B2, “2-amino-3,4-dihydro-pyrido[3,4-d]pyrimidine derivatives useful as inhibitors of β-secretase (BACE)” (Janssen Pharmaceutica, N.V., priority 2005, dated 2009) come the findings set out here.

Several values for one entry are separate records, joined by “and”; a condition that tells them apart may be missing. Identical values can stand only once. Like-named read-outs stand apart in the source and are kept apart here.

This test deals with human BACE-1 (Homo sapiens, UniProt P56817). In words: CEREP BACE Inhibition Assay. Type of test: biochemical. The note with it: for inhibition at 1 µM: read-out: % Inhibition @ 1.0 μM. The protocol: More specifically the assay, run at 50 μL in a 96 well plate, evaluated the effect of test compound on the activity of the human BACE-1 quantified by measuring the formation of Mca-S-E-V-N-L-NH2 from […], using a recombinant enzyme. The test compound, reference compound or water (control) were added to a buffer containing 0.09 M sodium acetate (pH 4.5) and 0.25 μg BACE-1. Compound interference with the fluorimetric detection method due to autofluorescence was then checked by measurements at the wavelengths defined to evaluate the enzyme activity. […] For control basal measurement, the substrate was omitted from the reaction mixture. […] The standard inhibitory reference compound was OM99-2, which was tested in each experiment at several concentrations to obtain an inhibition curve from which its IC50 value was calculated.
Chain of human BACE-1 (P56817 46-501): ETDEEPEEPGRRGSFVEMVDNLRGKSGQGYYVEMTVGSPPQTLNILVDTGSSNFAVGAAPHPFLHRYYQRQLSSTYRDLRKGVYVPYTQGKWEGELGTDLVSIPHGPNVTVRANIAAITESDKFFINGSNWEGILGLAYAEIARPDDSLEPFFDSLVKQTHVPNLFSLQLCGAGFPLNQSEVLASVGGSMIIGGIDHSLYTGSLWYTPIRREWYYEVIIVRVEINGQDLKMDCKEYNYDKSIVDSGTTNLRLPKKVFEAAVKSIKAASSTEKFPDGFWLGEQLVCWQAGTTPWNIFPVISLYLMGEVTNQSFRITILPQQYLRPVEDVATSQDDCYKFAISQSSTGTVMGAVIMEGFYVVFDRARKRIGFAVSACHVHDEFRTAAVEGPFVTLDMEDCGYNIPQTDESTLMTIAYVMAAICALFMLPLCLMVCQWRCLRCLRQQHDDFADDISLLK

[1] abbreviates: percent inhibition of the control activity, recombinant enzyme.
Where [2] appears, read: recombinant enzyme, read-out: IC50.
Setting [3] is: 1.0 μM, percent inhibition of the control activity, recombinant enzyme.

In general, inhibition refers to the change of the read-out against control, counted positive when it falls. Broadly, the IC50 is the concentration at which inhibition is half-maximal. Take `NC1=Nc2cnc(Oc3ccccc3)cc2CN1[C@@H](CCC(=O)N(Cc1nnn[nH]1)C1CCCCC1)C1CCCCC1` [Compound 77, 4-(2-Amino-6-phenoxy-4H-pyrido[3,4-d]pyrimidin-3-yl)-4-(S)—N-dicyclohexyl-N-(1H-tetrazol-5-ylmethyl)-butyramide]: the inhibition at 0.3 µM under setting [1] came to 78%. In addition, the IC50 under setting [2] was found to be 0.33 µM.

Turning to `CC(C)(C)CNCC[C@@H](C1CCCCC1)N1Cc2cc(Oc3ccccc3)ncc2N=C1N` [Compound 214], under setting [3], the “% Inhibition @ 1.0 μM” value was 53% and the inhibition at 1 µM is 57%. Moreover, the IC50 under setting [2] was 0.93 µM and 1 µM.

On to `CC(C)(C)OC(=O)N1CCC(NC(=O)CC[C@@H](C2CCCCC2)N2Cc3cc(Oc4ccccc4)ncc3N=C2N)CC1` [Compound 150], for which the inhibition at 1 µM under setting [3] worked out at 95%. Besides, under setting [2], the half-maximal inhibitory concentration (IC50) was determined as 0.17 µM.

As for `COCCN(CCOC)C(=O)CC[C@@H](C1CCCCC1)N1Cc2cc(Oc3ccccc3)ncc2N=C1N` [Compound 142], the inhibition at 1 µM under setting [3] worked out at 90%. Under setting [2], the IC50 worked out at 0.2 µM.

Regarding `CC(C)[C@H](CCC(=O)N[C@@H](COC(C)(C)C)c1nnn[nH]1)N1Cc2cc(Oc3ccccc3)ncc2N=C1N` [Compound 97, 4-(2-Amino-6-phenoxy-4H-pyrido[3,4-d]pyrimidin-3-yl)-5-methyl-(S)-hexanoic acid [2-(R)-tert-butoxy-1-(1H-tetrazol-5-yl)-ethyl]-amide], under setting [1], the inhibition at 0.3 µM stood at 96%. Also, the IC50 under setting [2] was 0.11 µM.

As to `NC1=Nc2cnc(Oc3ccccc3)cc2CN1[C@@H](CN1CC2(CCCCC2)NC1=O)C1CCCCC1` [Compound 135, 3-[2-(2-Amino-6-phenoxy-4H-pyrido[3,4-d]pyrimidin-3-yl)-2-(R)-cyclohexyl-ethyl]-1,3-diaza-spiro[4.5]decan-2-one], the inhibition at 1 µM under setting [3] was 52%. Under setting [2], the IC50 was found to be 0.2 µM.

As for `CC(C)(C)OCCN(Cc1ccc(F)cc1)C(=O)CC[C@@H](C1CCCCC1)N1Cc2cc(Oc3ccccc3)ncc2N=C1N` [Compound 158], under setting [3], the inhibition at 1 µM is 102%. Also, the IC50 under setting [2] worked out at 0.13 µM.

Turning to `NC1=Nc2cnc(Oc3ccccc3)cc2CN1[C@@H](CCC(=O)NCC1CC1)C1CCCCC1` [Compound 212], under setting [3], the inhibition at 1 µM was 99%. Moreover, the IC50 under setting [2] turned out to be 0.076 µM.

In the case of `CN(C(=O)CCCN1Cc2cc(Oc3ccccc3)ncc2N=C1N)C1CCCCC1` [Compound 196, 4-(2-Amino-6-phenoxy-4H-pyrido[3,4-d]pyrimidin-3-yl)-N-cyclohexyl-N-methyl-butyramide], the inhibition at 1 µM under setting [3] is 34%.

On to `NC1=Nc2cnc(Oc3ccccc3)cc2CN1[C@@H](CCC(=O)N(Cc1ncc[nH]1)C1CCCCC1)C1CCCCC1` [Compound 78, 4-(2-Amino-6-phenoxy-4H-pyrido[3,4-d]pyrimidin-3-yl)-4-(S),N-dicyclohexyl-N-(1H-imidazol-2-ylmethyl)-butyramide], for which the inhibition at 0.3 µM under setting [1] amounted to 91%. Under setting [2], the IC50 turned out to be 0.19 µM.

Turning to `CC(C)(C)CNC(=O)CC[C@@H](C1CCCCC1)N1Cc2cc(Oc3ccccc3)ncc2N=C1N` [Compound 204], the inhibition at 1 µM under setting [3] is 100%. Moreover, the IC50 under setting [2] worked out at 0.077 µM.

For `CC(C)(C)OC[C@@H](NC(=O)CC[C@@H](C1CCCCC1)N1Cc2cc(Oc3ccccc3)ncc2N=C1N)C(=O)N1CCOCC1` [Compound 103, 4-(2-Amino-6-phenoxy-4H-pyrido[3,4-d]pyrimidin-3-yl)-N-(1-(R)-tert-butoxymethyl-2-morpholin-4-yl-2-oxo-ethyl)-4-(S)-cyclohexyl-butyramide], the inhibition at 0.3 µM under setting [1] was 96%. Also, the IC50 under setting [2] amounted to 0.082 µM.

In the case of `CC(C)(C)CCNCC[C@@H](C1CCCCC1)N1Cc2cc(Oc3ccccc3)ncc2N=C1N` [Compound 216], under setting [3], the “% Inhibition @ 1.0 μM” value is on record as 95% and the inhibition at 1 µM worked out at 96%. Besides, the IC50 under setting [2] was 0.087 µM and 0.12 µM.

For `CC(C)OC(=O)[C@H](COC(C)(C)C)NC(=O)CC[C@@H](C1CCCCC1)N1Cc2cc(Oc3ccccc3)ncc2N=C1N` [Compound 136], the inhibition at 1 µM under setting [3] is 98%. Moreover, the IC50 under setting [2] was 0.19 µM.

Regarding `CC(C)C(COCC1CC(C2CCCCC2)=NO1)N1Cc2cc(Oc3ccccc3)ncc2N=C1N` (stereo not shown) [Compound 235], the inhibition at 1 µM stood at 59%. In addition, for the setting “IC50 (μM), recombinant enzyme”, the concentration for half-maximal inhibition (IC50) was 0.61 µM.

For the compound `CC(C)CN(CCN1CCOCC1)C(=O)CC[C@@H](C1CCCCC1)N1Cc2cc(Oc3ccccc3)ncc2N=C1N` [Compound 189], the inhibition at 1 µM under setting [3] worked out at 99%. Moreover, the IC50 under setting [2] was 0.14 µM.

In the case of `CC(C)(C)OC[C@H](CN)NCCC[C@@H](C1CCCCC1)N1Cc2cc(Oc3ccccc3)ncc2N=C1N` [Compound 167, N^2-[4-(2-Amino-6-phenoxy-4H-pyrido[3,4-d]pyrimidin-3-yl)-4-cyclohexyl-butyl]-3-tert-butoxy-propane-1,2-diamine], under setting [3], the inhibition at 1 µM came to 82%. Also, the IC50 under setting [2] was 0.52 µM.

Turning to `CN(C(=O)CC[C@@H](C1CCCCC1)N1Cc2cc(Oc3ccccc3)ncc2N=C1N)[C@@H](COC(C)(C)C)C(=O)O` [Compound 66], under setting [1], the inhibition at 0.3 µM came out at 96%. Besides, under setting [2], the concentration for half-maximal inhibition (IC50) is 0.26 µM.

For the compound `CC(C)[C@H](COCC1CCCCC1)N1Cc2cc(Oc3ccccc3)ncc2N=C1N` [Compound 234], the inhibition at 1 µM under setting [3] was determined as 94%. Moreover, under setting [2], the IC50 was found to be 0.18 µM.

In the case of `CC(C)(C)N(CCO)C(=O)CC[C@@H](C1CCCCC1)N1Cc2cc(Oc3ccccc3)ncc2N=C1N` [Compound 115], the inhibition at 1 µM under setting [3] came out at 80%. Under setting [2], the half-maximal inhibitory concentration (IC50) turned out to be 0.23 µM.

For the compound `COC(=O)[C@@H](COC(C)(C)C)NC(=O)CC[C@@H](C(C)C)N1Cc2cc(Oc3ccccc3)ncc2N=C1N` [Compound 87], the inhibition at 0.3 µM under setting [1] came out at 84%. Moreover, the half-maximal inhibitory concentration (IC50) under setting [2] is 0.096 µM.

On to `NC1=Nc2cnc(Oc3ccccc3)cc2CN1[C@@H](CCC(=O)N1CCC[C@H]1CO)C1CCCCC1` [Compound 143], for which the inhibition at 1 µM under setting [3] was 65%. Besides, the IC50 under setting [2] was determined as 1.2 µM.

In the case of `CC(C)(C)OCCN(Cc1ccccn1)C(=O)CC[C@@H](C1CCCCC1)N1Cc2cc(Oc3ccccc3)ncc2N=C1N` [Compound 155], under setting [3], the inhibition at 1 µM stood at 100%. Further, under setting [2], the half-maximal inhibitory concentration (IC50) came out at 0.084 µM.

With `CC(C)(C)CNCCC[C@@H](C1CCCCC1)N1Cc2cc(Oc3ccccc3)ncc2N=C1N` [Compound 161], the inhibition at 1 µM under setting [3] was 94%. The 50% inhibitory concentration (IC50) under setting [2] came out at 0.2 µM.

Take `CC(C)[C@H](CCC(=O)N[C@H](COCc1ccccc1)C(=O)O)N1Cc2cc(Oc3ccccc3)ncc2N=C1N` [Compound 54]: the inhibition at 0.3 µM under setting [1] came to 97%. Further, the half-inhibitory concentration (IC50) under setting [2] was 0.17 µM.

For `CN(CCO)C(=O)CC[C@@H](C1CCCCC1)N1Cc2cc(Oc3ccccc3)ncc2N=C1N` [Compound 171], under setting [3], the inhibition at 1 µM came out at 77%. Besides, the IC50 under setting [2] came out at 0.27 µM.

As to `CC(C)(C)OC(=O)CC[C@@H](C1CCCCC1)N1Cc2cc(Oc3ccccc3)ncc2N=C1N` [Compound 75], the inhibition at 1 µM under setting [3] worked out at 90%. Under setting [2], the IC50 was 0.24 µM.

Consider `COC(=O)[C@H](COC(C)(C)C)NC(=O)CC[C@@H](C1CCCCC1)N1Cc2cc(Oc3ccccc3)ncc2N=C1N` [Compound 61], for which the inhibition at 0.3 µM under setting [1] was 81%. The concentration for half-maximal inhibition (IC50) under setting [2] came out at 0.24 µM.

Regarding `Cn1c(CN(CCC(C)(C)C)C(=O)CC[C@@H](C2CCCCC2)N2Cc3cc(Oc4ccccc4)ncc3N=C2N)nc(Cl)c1Cl` [Compound 172], the inhibition at 1 µM under setting [3] is 99%. Further, the concentration for half-maximal inhibition (IC50) under setting [2] was found to be 0.17 µM.

As to `CC(C)[C@H](CCC(=O)N(CC(=O)O)C1CCCCC1)N1Cc2cc(Oc3ccccc3)ncc2N=C1N` [Compound 86], the inhibition at 0.3 µM under setting [1] came to 99%. For the same compound, the IC50 under setting [2] came to 0.12 µM.

With `NC1=Nc2cnc(Oc3ccccc3)cc2CN1[C@@H](Cn1cc(C2CCCCC2)nn1)C1CCCCC1` [Compound 151], the inhibition at 1 µM under setting [3] worked out at 98%. In addition, the concentration for half-maximal inhibition (IC50) under setting [2] turned out to be 0.15 µM.

On to `CC(C)(C)OCCN(Cc1ccccn1)C(=O)CC[C@@H](C1CCCCC1)N1Cc2cc(Oc3ccccc3)ncc2N=C1N` [Compound 162], for which, under setting [3], the “% Inhibition @ 1.0 μM” value is 99%. Besides, the IC50 under setting [2] worked out at 0.09 µM.

Regarding `CC(C)(C)CCN(Cc1ccncc1)C(=O)CC[C@@H](C1CCCCC1)N1Cc2cc(Oc3ccccc3)ncc2N=C1N` [Compound 137], under setting [3], the inhibition at 1 µM was found to be 101%. For the same compound, the concentration for half-maximal inhibition (IC50) under setting [2] was found to be 0.17 µM.

Regarding `CC(C)(C)CNC(=O)CC[C@@H](CC1CCOCC1)N1Cc2cc(Oc3ccccc3)ncc2N=C1N` [Compound 219], the inhibition at 1 µM under setting [3] is 64%. Moreover, the 50% inhibitory concentration (IC50) under setting [2] amounted to 0.64 µM.

Regarding `CN(CC[C@@H](C1CCCCC1)N1Cc2cc(Oc3ccccc3)ncc2N=C1N)C1CCCCC1` [Compound 206], under setting [3], the “% Inhibition @ 1.0 μM” value came to 90% and the inhibition at 1 µM came out at 91%. In addition, the concentration for half-maximal inhibition (IC50) under setting [2] is 0.18 µM and 0.12 µM.

Turning to `CC(C)(C)OC[C@H](CN)NC(=O)CC[C@@H](C1CCCCC1)N1Cc2cc(Oc3ccccc3)ncc2N=C1N` [Compound 168, N-(2-Amino-1-tert-butoxymethyl-ethyl)-4-(2-amino-6-phenoxy-4H-pyrido[3,4-d]pyrimidin-3-yl)-4-cyclohexyl-butyramide], the inhibition at 1 µM under setting [3] amounted to 101%.

As for `Cn1ccnc1CN(C(=O)CC[C@@H](C1CCCCC1)N1Cc2cc(Oc3ccccc3)ncc2N=C1N)C1CCCCC1` [Compound 83], the inhibition at 1 µM under setting [3] was determined as 99%. For the same compound, the half-inhibitory concentration (IC50) under setting [2] turned out to be 0.09 µM.

With `NC1=Nc2cnc(Oc3ccccc3)cc2CN1[C@@H](CCC(=O)N(CCO)Cc1cccs1)C1CCCCC1` [Compound 141], the inhibition at 1 µM under setting [3] amounted to 98%. In addition, the IC50 under setting [2] worked out at 0.12 µM.

For the compound `CC(C)(C)OC[C@@H](NC(=O)CC[C@@H](C1CCCCC1)N1Cc2cc(Oc3ccccc3)ncc2N=C1N)C(=O)N1CCCCC1` [Compound 100], the inhibition at 0.3 µM under setting [1] amounted to 93%. Also, the IC50 under setting [2] came out at 0.11 µM.
